Measured values: article PMC6832352, “Synthesis and Glycosidase Inhibition of Broussonetine M and Its Analogues” (Molecules, 2019)

Legend:
[1] = biological target: T1, Amyloglucosidase (Aspergillus niger, UniProt P69328); assay: glycosidase inhibition assay, A. niger amyloglucosidase; format: biochemical
T1 construct: purchased Sigma-Aldrich Chemical Co
Method: (§1) With rat intestinal maltase as an exception, other enzymes were purchased from Sigma-Aldrich Chemical Co. (St. Louis, Mo. USA). Brush border membranes prepared from rat small intestine according to the method of Kessler et al. were assayed at pH 6.8 for rat intestinal maltase using maltose. The released D-glucose was determined colorimetrically using the Glucose CII-test Wako (Wako Pure Chemical Ind.; Osaka, Japan). Other glycosidase activities were determined using an appropriate p-nitrophenyl glycoside as substrate in a buffer solution at the optimal pH value of each enzyme. The reaction was stopped by adding 400 mM Na2CO3. The released p-nitrophenol was measured spectrometrically at 400 nm.

[2] = biological target: T2, β-Glucuronidase (Bos taurus, UniProt A3KMY8); assay: glycosidase inhibition assay, bovine liver β-glucuronidase; format: biochemical; conditions: for IC50: β-Glucuronidase, Bovine liver
T2 construct: purchased Sigma-Aldrich Chemical Co; host or cells: bovine liver
T2 sequence (A3KMY8 1-652): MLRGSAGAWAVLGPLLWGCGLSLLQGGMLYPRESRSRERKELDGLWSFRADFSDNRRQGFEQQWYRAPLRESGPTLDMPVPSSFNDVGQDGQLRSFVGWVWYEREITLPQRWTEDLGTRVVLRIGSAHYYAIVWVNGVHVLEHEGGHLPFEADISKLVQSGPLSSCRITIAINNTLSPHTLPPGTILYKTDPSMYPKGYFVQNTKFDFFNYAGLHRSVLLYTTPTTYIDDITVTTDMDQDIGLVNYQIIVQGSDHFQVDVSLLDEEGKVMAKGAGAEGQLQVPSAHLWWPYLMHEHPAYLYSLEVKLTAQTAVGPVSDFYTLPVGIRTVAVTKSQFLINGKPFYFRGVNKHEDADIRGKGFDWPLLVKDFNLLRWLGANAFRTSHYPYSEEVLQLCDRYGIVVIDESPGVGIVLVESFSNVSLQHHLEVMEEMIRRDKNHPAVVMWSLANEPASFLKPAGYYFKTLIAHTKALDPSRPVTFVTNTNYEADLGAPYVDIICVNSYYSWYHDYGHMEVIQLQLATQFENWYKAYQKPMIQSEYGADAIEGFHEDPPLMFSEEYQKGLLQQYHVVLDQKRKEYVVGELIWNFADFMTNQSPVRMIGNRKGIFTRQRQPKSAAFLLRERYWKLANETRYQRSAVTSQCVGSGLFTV
Method: as §1

[3] = biological target: T3, α,α-Trehalase (Sus scrofa, UniProt I3LIR5); assay: glycosidase inhibition assay, porcine kidney α,α-trehalase; format: biochemical
T3 sequence (I3LIR5 24-556): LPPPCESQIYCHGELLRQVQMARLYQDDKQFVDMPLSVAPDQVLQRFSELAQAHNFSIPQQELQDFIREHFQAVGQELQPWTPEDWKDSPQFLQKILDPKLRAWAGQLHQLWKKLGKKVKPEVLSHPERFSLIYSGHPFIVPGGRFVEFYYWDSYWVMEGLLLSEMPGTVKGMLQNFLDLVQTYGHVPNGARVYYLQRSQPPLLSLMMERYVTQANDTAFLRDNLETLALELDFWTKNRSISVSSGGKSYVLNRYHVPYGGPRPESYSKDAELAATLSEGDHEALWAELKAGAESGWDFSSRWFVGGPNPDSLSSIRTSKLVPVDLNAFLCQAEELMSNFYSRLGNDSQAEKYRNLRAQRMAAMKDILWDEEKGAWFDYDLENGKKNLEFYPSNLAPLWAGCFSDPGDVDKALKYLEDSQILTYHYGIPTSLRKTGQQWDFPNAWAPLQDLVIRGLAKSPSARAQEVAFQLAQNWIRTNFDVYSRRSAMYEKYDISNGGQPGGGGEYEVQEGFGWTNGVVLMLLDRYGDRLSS
Method: as §1

[4] = biological target: T4, α-L-Rhamnosidase (Penicillium decumbens, UniProt S7ZS15); assay: glycosidase inhibition assay, P. decumbens α-L-rhamnosidase; format: biochemical
T4 sequence (S7ZS15 1-894): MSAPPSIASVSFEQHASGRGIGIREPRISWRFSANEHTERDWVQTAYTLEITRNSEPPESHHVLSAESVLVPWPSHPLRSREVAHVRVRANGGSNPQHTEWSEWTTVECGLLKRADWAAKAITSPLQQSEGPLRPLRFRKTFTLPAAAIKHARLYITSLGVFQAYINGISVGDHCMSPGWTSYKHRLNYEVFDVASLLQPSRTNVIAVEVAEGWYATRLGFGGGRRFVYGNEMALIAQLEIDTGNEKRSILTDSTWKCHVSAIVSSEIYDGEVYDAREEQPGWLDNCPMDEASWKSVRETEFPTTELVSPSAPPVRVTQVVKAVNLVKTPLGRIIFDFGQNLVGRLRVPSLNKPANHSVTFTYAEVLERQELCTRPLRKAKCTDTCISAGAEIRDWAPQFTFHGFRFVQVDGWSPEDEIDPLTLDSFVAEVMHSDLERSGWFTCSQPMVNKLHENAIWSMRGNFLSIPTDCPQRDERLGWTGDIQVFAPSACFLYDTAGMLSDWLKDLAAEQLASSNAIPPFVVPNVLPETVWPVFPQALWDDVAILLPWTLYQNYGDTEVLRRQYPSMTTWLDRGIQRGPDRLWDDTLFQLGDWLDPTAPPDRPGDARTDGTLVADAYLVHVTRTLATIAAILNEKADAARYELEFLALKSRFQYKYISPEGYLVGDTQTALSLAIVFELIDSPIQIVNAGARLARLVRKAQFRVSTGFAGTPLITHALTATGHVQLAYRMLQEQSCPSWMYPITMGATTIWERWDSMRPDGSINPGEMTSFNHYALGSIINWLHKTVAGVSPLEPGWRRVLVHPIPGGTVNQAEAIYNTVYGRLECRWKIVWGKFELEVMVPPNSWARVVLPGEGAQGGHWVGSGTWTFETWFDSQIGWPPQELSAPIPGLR
Method: as §1

[5] = biological target: T5, α-Glucosidase (Saccharomyces cerevisiae, UniProt P53341); assay: glycosidase inhibition assay, yeast α-glucosidase; format: biochemical; conditions: for IC50: α-Glucosidase, Yeast
T5 construct: purchased Sigma-Aldrich Chemical Co
Method: as §1

[6] = biological target: β-Galactosidase; conditions: β-galactosidase from bovine liver; natural product isolated by Kusano’s group; cited from earlier work

T1 sequence (P69328 25-640): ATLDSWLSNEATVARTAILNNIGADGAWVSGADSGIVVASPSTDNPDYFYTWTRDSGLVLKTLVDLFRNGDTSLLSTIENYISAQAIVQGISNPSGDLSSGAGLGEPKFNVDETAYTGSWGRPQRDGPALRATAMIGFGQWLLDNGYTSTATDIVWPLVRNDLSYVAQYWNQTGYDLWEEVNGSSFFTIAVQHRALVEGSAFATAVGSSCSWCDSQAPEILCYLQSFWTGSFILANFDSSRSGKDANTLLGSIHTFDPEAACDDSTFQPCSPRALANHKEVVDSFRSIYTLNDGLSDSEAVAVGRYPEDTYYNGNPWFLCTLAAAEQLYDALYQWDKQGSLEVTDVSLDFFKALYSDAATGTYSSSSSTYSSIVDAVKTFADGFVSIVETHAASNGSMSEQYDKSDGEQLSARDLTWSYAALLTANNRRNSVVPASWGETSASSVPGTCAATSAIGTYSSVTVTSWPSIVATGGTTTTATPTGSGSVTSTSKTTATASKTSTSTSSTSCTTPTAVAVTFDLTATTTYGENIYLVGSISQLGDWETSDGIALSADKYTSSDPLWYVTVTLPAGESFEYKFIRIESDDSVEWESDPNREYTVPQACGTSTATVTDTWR
T5 sequence (P53341 whole entry): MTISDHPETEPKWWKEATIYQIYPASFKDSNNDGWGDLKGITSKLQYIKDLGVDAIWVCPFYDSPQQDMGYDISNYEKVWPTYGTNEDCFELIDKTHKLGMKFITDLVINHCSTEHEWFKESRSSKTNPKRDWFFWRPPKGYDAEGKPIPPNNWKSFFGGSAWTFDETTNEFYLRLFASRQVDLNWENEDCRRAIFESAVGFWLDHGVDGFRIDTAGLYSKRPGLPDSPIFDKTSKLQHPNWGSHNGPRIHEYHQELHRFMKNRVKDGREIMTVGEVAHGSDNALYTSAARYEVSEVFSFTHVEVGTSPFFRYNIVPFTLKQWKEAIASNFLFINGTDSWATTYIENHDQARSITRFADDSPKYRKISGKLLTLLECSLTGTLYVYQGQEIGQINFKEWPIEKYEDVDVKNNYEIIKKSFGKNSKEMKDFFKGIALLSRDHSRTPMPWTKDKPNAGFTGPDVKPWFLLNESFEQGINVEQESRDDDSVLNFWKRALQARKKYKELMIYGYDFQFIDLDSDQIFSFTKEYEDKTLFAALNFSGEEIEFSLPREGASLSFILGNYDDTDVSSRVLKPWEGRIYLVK

SMILES | IC50 [1] | inhibition at 100 µM [1] | inhibition at 100 µM [2] | IC50 [2] | inhibition at 100 µM [3] | inhibition at 100 µM [4] | inhibition at 100 µM [5] | IC50 [5] | IC50 [6]
OCCC[C@@H](O)CCCCCCCCC[C@@H]1N[C@@H](CO)[C@H](O)[C@H]1O [ent-10’-epi-3] | > 100 µM | 6.1% | 14.9% | > 100 µM | 0% | 1.8% | 1.9% | > 100 µM | –
OCCC[C@@H](O)CCCCCCCCC[C@H]1N[C@@H](CO)[C@@H](O)[C@@H]1O [2-epi-3, (2S,3R,4R,5R)-2-hydroxymethyl-3,4-dihydroxyl-5-((10R)-10,13-(dihydroxyl)dec-1-yl) pyrrolidine] | > 100 µM | 3.8% | 5.2% | > 100 µM | 0% | 3.3% | 1.6% | > 100 µM | –
OCCC[C@H](O)CCCCCCCCC[C@H]1N[C@H](CO)[C@@H](O)[C@@H]1O [10’-epi-3, (2R,3R,4R,5R)-2-hydroxymethyl-3,4-dihydroxyl-5-((10S)-10,13-(dihydroxyl)dec-1-yl) pyrrolidine] | > 100 µM | 36.5% | 17.2% | > 100 µM | 0% | 4.7% | 4.6% | > 100 µM | –
OCCC[C@H](O)CCCCCCCCC[C@@H]1N[C@@H](CO)[C@H](O)[C@H]1O [ent-3, (2S,3S,4S,5S)-2-hydroxymethyl-3,4-dihydroxyl-5-((10S)-10,13-(dihydroxyl)dec-1-yl) pyrrolidine] | > 100 µM | 0% | 2.3% | > 100 µM | 2.1% | 13.3% | 1.9% | > 100 µM | –
OCCCC(O)CCCCCCCCCC1NC(CO)C(O)C1O [2,10-di-epi-3, (2S,3R,4R,5R)-2-hydroxymethyl-3,4-dihydroxyl-5-((10S)-10,13-(dihydroxyl)dec-1-yl) pyrrolidine] | > 100 µM | 6.8% | 1.7% | > 100 µM | 0% | 4.7% | 3.2% | > 100 µM | –
OCCC[C@@H](O)CCCCCCCCC[C@H]1N[C@H](CO)[C@@H](O)[C@@H]1O [compound 3, (2R,3R,4R,5R)-2-hydroxymethyl-3,4-dihydroxyl-5-((10R)-10,13-(dihydroxyl)dec-1-yl)pyrrolidine] | > 100 µM | 3.8% | 18.4% | > 100 µM | 0% | 6.1% | 2.6% | > 100 µM | 8.1 µM
OCCC[C@@H](O)CCCCCCCCC[C@@H]1N[C@@H](CO)[C@@H](O)[C@H]1O [ent-3,10-di-epi-3] | > 100 µM | 0% | 14.9% | > 100 µM | 3.8% | 11.4% | 6.6% | > 100 µM | –
OCCC[C@H](O)CCCCCCCCC[C@@H]1N[C@@H](CO)[C@@H](O)[C@H]1O [ent-3-epi-3, (2S,3R,4S,5S)-2-hydroxymethyl-3,4-dihydroxyl-5-((10S)-10,13-(dihydroxyl)dec-1-yl) pyrrolidine] | > 100 µM | 0% | 0% | > 100 µM | 0% | 15.2% | 0% | > 100 µM | –
